Data as given in publication PMC4420714 (Peptides, 2015).
“Also recorded” adds a separate entry of the source. Like-named read-outs stand apart in the source and are kept apart here.

Columns and labels:
[1] = target: T1, PAC1-R (Homo sapiens, UniProt P41586); test: Binding of 125I-PACAP27 to PAC1-R stably transfected NIH 3T3 cells
T1 sequence (P41586 21-468): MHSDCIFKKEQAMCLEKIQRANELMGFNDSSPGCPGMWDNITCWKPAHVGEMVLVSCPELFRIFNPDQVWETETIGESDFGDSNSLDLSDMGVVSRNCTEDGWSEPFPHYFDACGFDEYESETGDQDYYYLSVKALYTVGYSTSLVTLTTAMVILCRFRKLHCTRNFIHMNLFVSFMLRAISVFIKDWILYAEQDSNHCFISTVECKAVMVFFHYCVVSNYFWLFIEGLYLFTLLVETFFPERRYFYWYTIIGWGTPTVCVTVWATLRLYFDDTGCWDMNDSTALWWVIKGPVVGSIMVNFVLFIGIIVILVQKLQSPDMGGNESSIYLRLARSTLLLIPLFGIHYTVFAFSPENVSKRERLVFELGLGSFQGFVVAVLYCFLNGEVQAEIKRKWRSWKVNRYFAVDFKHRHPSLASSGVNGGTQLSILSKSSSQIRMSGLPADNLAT

[2] = target: T2, VPAC1-R (Homo sapiens, UniProt P32241); test: Binding of 125I-VIP to VPAC1-R/PANC-1 cells
T2 sequence (P32241 31-457): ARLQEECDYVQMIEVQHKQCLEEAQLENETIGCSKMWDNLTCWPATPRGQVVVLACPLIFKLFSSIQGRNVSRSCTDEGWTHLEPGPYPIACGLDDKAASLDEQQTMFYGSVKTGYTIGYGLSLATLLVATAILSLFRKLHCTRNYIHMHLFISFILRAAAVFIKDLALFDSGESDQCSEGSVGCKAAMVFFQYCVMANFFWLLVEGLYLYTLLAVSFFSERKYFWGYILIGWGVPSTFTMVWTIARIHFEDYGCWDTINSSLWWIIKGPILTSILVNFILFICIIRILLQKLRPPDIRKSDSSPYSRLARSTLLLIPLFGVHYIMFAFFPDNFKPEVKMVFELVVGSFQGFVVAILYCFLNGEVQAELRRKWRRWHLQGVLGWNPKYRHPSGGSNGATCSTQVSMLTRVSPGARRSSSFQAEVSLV

[3] = target: T3, VPAC2-R (Homo sapiens, UniProt P41587); test: Binding of 125I-PACAP27 to VPAC2-R/PANC-1 cells; settings: ratio of binding IC50, analog vs native parent peptide
T3 sequence (P41587 24-438): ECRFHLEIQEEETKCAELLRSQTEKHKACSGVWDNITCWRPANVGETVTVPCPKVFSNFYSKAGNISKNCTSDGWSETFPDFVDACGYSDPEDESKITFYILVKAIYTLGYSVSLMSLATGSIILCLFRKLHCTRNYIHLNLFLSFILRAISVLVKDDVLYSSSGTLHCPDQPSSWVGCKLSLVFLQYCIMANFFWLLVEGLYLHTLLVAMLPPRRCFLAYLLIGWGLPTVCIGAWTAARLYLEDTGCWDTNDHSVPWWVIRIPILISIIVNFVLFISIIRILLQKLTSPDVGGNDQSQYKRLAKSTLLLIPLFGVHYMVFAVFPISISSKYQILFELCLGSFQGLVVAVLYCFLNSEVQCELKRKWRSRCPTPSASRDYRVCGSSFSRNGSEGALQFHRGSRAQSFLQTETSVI

[4] = target: T1, PAC1-R; test: [3H]cAMP generation in PAC1-R cells; format: cell-based
[5] = target: T2, VPAC1-R; test: [3H]cAMP generation in VPAC1-R/PANC-1 cells; format: cell-based
[6] = target: T2, VPAC1-R; test: [3H]cAMP generation in T47D cells; format: cell-based; settings: for [3H]cAMP T47D % max (agonist class): relative to PACAP38, up to 1 µM
[7] = target: T3, VPAC2-R; test: [3H]cAMP generation in VPAC2-R/PANC-1 cells; format: cell-based; settings: for maximal increase in cAMP, VPAC2-R/PANC-1 cells: over control
[8] = target: T1, PAC1-R; test: [3H]Inositol phosphate generation; format: cell-based; settings: PAC1-R cells, IP EC50/cAMP EC50
[9] = target: T1, PAC1-R; settings: PAC1-R over VPAC1-R; ref [13]; cited from earlier work
[10] = ratio of binding IC50, analog vs native parent peptide

Substance | decrease in affinity for VPAC1-R/PANC-1 cells compared to native PACAP38 (or PACAP27, VIP) [2, 10] [fold] | decrease in affinity for VPAC2-R/PANC-1 cells compared to native PACAP38 (or PACAP27, VIP) [3] | [3H]cAMP T47D % max (agonist class) [6] | maximal increase in cAMP, PAC1-R cells [4] [fold] | coupling ratio (IC50-binding affinity/EC50-cAMP generation), VPAC1-R/PANC-1 cells [5] [fold] | maximal increase in cAMP, VPAC2-R/PANC-1 cells [7] [fold] | decrease in affinity for PAC1-R cells compared to native PACAP38 (or PACAP27) [1] | lower affinity for PAC1-R cells than VPAC1-R/PANC-1 cells [1] | higher potency for PAC1-R cells compared to VPAC1-R/PANC-1 cells [4] | higher potency for PAC1-R cells compared to VPAC2-R/PANC-1 cells [4] | other results
[Pro^3]VIP [Peptide P50] | > 500 | > 500 fold | Ag (1 µM, 68) | – | – | – | – | – | – | – | lower affinity for PAC1-R cells than VPAC1-R/PANC-1 cells ([1]; binding IC50 ratio, VPAC1-R preferring): 6–10 fold; [3H]cAMP PAC1-R % max (agonist class) ([4]; PAC1-R cells, relative to maximal stimulation by PACAP38, up to 1 µM): no agonist activity; also recorded: No Act; [3H]cAMP VPAC1-R/PANC-1 % max (agonist class) ([5]; VPAC1-R/PANC-1 cells, relative to PACAP38, up to 1 µM): Ag (1 µM, 68); [3H]cAMP T47D % max, agonist activity at 1 µM, still increasing ([6]; at 1 µM): Ag (1 µM, 68) % max; [3H]cAMP VPAC2-R/PANC-1 % max (agonist class) ([7]; VPAC2-R/PANC-1 cells, relative to PACAP38, up to 1 µM): Ag (1 µM, 52)
PACAP38 [reference compound] | – | – | – | 4.1 ± 1.5 | 2.5 | 6.5 ± 2.0 | – | – | – | – | maximal increase in cAMP, VPAC1-R/PANC-1 cells [5]: 5.0 ± 0.7 fold; less potent at stimulating [3H]IP (PLC) than cAMP [8]: 19 fold
PACAP27 [reference compound] | – | – | – | 4.1 ± 1.5 | 1.2 | 6.5 ± 2.0 | 10 fold | 12 fold | – | – | higher affinity (selectivity) for PAC1-R cells over VPAC2-R/PANC-1 cells [1]: 2 fold; higher affinity than PACAP38 for VPAC1-R/PANC-1 cells ([2]; binding IC50 ratio): 6 fold; coupling ratio (IC50-binding affinity/EC50-cAMP generation), PAC1-R cells [4]: 94 fold; maximal increase in cAMP, VPAC1-R/PANC-1 cells ([5]; over control): 5.0 ± 0.7 fold; coupling ratio (IC50-binding affinity/EC50-cAMP generation), VPAC2-R/PANC-1 cells [7]: 4.8 fold
[D-Ser^2]PACAP27 [Peptide P4] | 37 | 7 fold | pAg (90) | – | – | – | 15–25 fold | 6–10 fold | 2-to-5 fold | 12–140 fold | lower affinity for PAC1-R cells than VPAC2-R/PANC-1 cells [1]: 2–9 fold; [3H]cAMP T47D % max of partial agonist ([6]; partial agonist maximum): pAg (90) % max; PAC1-selectivity reported in a previous study [9]: 3 fold
[D-Ser^2]PACAP38 [Peptide P16] | – | 15–500 fold | – | – | – | – | 11–30 fold | – | 2-to-5 fold | 12–140 fold | decrease in affinity for VPAC1-R/PANC-1 cells compared to native PACAP38 (or PACAP27, VIP) [2]: 100–500 fold
